Tests used:
Format in all cases: biochemical
JAK3 = target: T1, JAK3 (Homo sapiens, UniProt P52333); assay: JAK kinase assay (HTRF, phosphorylation of synthetic peptide), JAK3; conditions: catalytic domain, ATP at Km (2 μM); read-out: JAK3 kinase inhibitory activity (EC50)
T1 construct: All four purified enzymes contain only the catalytic domain; His (N); purchased Carna Biosciences, Inc; host or cells: baculovirus expression system

JAK2 = target: T2, JAK2 (Homo sapiens, UniProt O60674); assay: JAK kinase assay (HTRF, phosphorylation of synthetic peptide), JAK2; conditions: catalytic domain, ATP at Km (4 μM); read-out: JAK2 kinase inhibitory activity (EC50)
T2 construct: All four purified enzymes contain only the catalytic domain; His (N); purchased Carna Biosciences, Inc; host or cells: baculovirus expression system
Summary of the method: (§1)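 Catalytic-domain human JAK1 (GST-tagged, aa 850-1154) or His-tagged JAK2, baculovirus-expressed, phosphorylated 1 µM biotinylated TK peptide at Km ATP (JAK1 7 µM, 10 mM MgCl2, 50 nM SEB; JAK2 4 µM, 5 mM MgCl2) in pH 7.0 Hepes, 20-30 min RT. EDTA stop; overnight streptavidin-XL665/cryptate HTRF read.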

JAK1 = target: T3, JAK1 (Homo sapiens, UniProt P23458); assay: JAK kinase assay (HTRF, phosphorylation of synthetic peptide), JAK1; conditions: catalytic domain, ATP at Km (7 μM); read-out: JAK1 kinase inhibitory activity (EC50)
T3 construct: JAK1 (aa 850-1154) and TYK2 (aa 871-1187) are expressed with an N-terminally fused GST-tag; GST (N); purchased Carna Biosciences, Inc; host or cells: baculovirus expression system
Summary of the method: as §1

TYK2 = target: T4, TYK2 (Homo sapiens, UniProt P29597); assay: JAK kinase assay (HTRF, phosphorylation of synthetic peptide), TYK2; conditions: catalytic domain, ATP at Km (13 μM); read-out: TYK2 kinase inhibitory activity (EC50)
T4 construct: JAK1 (aa 850-1154) and TYK2 (aa 871-1187) are expressed with an N-terminally fused GST-tag; GST (N); purchased Carna Biosciences, Inc; host or cells: baculovirus expression system
T4 sequence (P29597 871-1187): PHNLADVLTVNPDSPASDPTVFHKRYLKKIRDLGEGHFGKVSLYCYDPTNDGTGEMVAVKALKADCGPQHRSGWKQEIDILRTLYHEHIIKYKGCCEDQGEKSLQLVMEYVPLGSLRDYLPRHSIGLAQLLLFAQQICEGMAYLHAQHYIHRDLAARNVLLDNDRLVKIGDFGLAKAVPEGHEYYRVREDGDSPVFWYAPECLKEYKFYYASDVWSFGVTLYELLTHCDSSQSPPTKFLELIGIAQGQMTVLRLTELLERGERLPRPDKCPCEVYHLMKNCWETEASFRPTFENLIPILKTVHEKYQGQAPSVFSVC
Summary of the method: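 1 µM biotinylated TK peptide at Km ATP in pH 7.0 Hepes, 20-30 min RT. EDTA stop; overnight streptavidin-XL665/cryptate HTRF read.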

T3 sequence (P23458 850-1154): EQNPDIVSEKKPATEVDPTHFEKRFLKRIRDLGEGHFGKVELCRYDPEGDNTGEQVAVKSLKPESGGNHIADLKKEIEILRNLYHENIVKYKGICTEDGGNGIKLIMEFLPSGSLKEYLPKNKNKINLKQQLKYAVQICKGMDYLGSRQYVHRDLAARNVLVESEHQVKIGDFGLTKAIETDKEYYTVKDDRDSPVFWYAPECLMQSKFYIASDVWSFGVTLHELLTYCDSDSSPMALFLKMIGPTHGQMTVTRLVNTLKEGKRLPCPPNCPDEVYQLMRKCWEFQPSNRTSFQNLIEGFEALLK
T2 sequence (O60674 849-1124 limits assumed): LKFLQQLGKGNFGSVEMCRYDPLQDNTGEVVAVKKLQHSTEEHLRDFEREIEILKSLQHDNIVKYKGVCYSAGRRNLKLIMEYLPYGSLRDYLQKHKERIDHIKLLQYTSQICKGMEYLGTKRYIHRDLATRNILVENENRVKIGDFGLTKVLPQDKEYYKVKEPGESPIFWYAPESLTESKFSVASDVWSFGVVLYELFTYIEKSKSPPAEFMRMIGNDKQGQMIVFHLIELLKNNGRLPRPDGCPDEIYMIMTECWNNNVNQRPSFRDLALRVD
T1 sequence (P52333 822-1111 limits assumed): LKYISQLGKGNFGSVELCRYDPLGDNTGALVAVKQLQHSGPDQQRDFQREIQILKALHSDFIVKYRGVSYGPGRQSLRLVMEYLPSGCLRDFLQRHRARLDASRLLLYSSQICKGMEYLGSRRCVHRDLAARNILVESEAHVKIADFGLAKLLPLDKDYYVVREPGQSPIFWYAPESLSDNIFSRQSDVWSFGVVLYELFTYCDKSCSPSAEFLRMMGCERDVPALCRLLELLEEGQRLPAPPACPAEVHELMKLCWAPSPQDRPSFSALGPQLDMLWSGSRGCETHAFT

CN(OCc1ccccc1)S(=O)(=O)N1CCN(c2ncnc3[nH]ccc23)CC12CC2 [Example 174, N-benzyloxy-N-methyl-5-(7H-pyrrolo[2,3-d]pyrimidin-4-yl)-5,8-diazaspiro[2.5]octane-8-sulfonamide]
EC50 (JAK3): 100 to 500 nM
EC50 (JAK2): < 100 nM
EC50 (JAK1): < 100 nM
EC50 (TYK2): 100 to 500 nM

O=S(=O)(NC[C@@H]1CCCN1Cc1ccccc1)N1CCN(c2ncnc3[nH]ccc23)CC12CC2 [Example 175, N-[[(2S)-1-benzylpyrrolidin-2-yl]methyl]-5-(7H-pyrrolo[2,3-d]pyrimidin-4-yl)-5,8-diazaspiro[2.5]octane-8-sulfonamide]
EC50 (JAK3): 100 to 500 nM
EC50 (JAK2): < 100 nM
EC50 (JAK1): < 100 nM
EC50 (TYK2): 100 to 500 nM

O=CNS(=O)(=O)N1CCN(c2ncnc3[nH]ccc23)CC12CC2 [Example 176, N-[[5-(7H-pyrrolo[2,3-d]pyrimidin-4-yl)-5,8-diazaspiro[2.5]octan-8-yl]sulfonyl]formamide]
EC50 (JAK3): 100 to 500 nM
EC50 (JAK2): < 100 nM
EC50 (JAK1): < 100 nM
EC50 (TYK2): > 500 nM

CN(CC12C3C4C1C1C2C3C41C#N)S(=O)(=O)N1CCN(c2ncnc3[nH]ccc23)CC12CC2 (stereo not drawn) [Example 177, N-[(4-cyanocuban-1-yl)methyl]-N-methyl-5-(7H-pyrrolo[2,3-d]pyrimidin-4-yl)-5,8-diazaspiro[2.5]octane-8-sulfonamide]
EC50 (JAK3): < 100 nM
EC50 (JAK2): < 100 nM
EC50 (JAK1): < 100 nM
EC50 (TYK2): < 100 nM

CN(C1CN(C(=O)CO)C1)S(=O)(=O)N1CCN(c2ncnc3[nH]ccc23)CC12CC2 [Example 178, N-[1-(2-hydroxyacetyl)azetidin-3-yl]-N-methyl-5-(7H-pyrrolo[2,3-d]pyrimidin-4-yl)-5,8-diazaspiro[2.5]octane-8-sulfonamide]
EC50 (JAK3): < 100 nM
EC50 (JAK2): < 100 nM
EC50 (JAK1): < 100 nM
EC50 (TYK2): 100 to 500 nM

CN(C1CN(C(=O)CCO)C1)S(=O)(=O)N1CCN(c2ncnc3[nH]ccc23)CC12CC2 [Example 179, N-[1-(3-hydroxypropanoyl)azetidin-3-yl]-N-methyl-5-(7H-pyrrolo[2,3-d]pyrimidin-4-yl)-5,8-diazaspiro[2.5]octane-8-sulfonamide]
EC50 (JAK3): 100 to 500 nM
EC50 (JAK2): < 100 nM
EC50 (JAK1): < 100 nM
EC50 (TYK2): 100 to 500 nM

CN(C1CN(S(C)(=O)=O)C1)S(=O)(=O)N1CCN(c2ncnc3[nH]ccc23)CC12CC2 [Example 180, N-methyl-N-(1-methylsulfonylazetidin-3-yl)-5-(7H-pyrrolo[2,3-d]pyrimidin-4-yl)-5,8-diazaspiro[2.5]octane-8-sulfonamide]
EC50 (JAK3): < 100 nM
EC50 (JAK2): < 100 nM
EC50 (JAK1): < 100 nM
EC50 (TYK2): < 100 nM

CN(C[C@H]1CCCN1S(C)(=O)=O)S(=O)(=O)N1CCN(c2ncnc3[nH]ccc23)CC12CC2 [Example 181, N-methyl-N-[[(2R)-1-methylsulfonylpyrrolidin-2-yl]methyl]-5-(7H-pyrrolo[2,3-d]pyrimidin-4-yl)-5,8-diazaspiro[2.5]octane-8-sulfonamide]
EC50 (JAK3): < 100 nM
EC50 (JAK2): < 100 nM
EC50 (JAK1): < 100 nM
EC50 (TYK2): < 100 nM

CN(C[C@H]1CCCN1S(=O)(=O)CCCC#N)S(=O)(=O)N1CCN(c2ncnc3[nH]ccc23)CC12CC2 [Example 182, N-[[(2R)-1-(3-cyanopropylsulfonyl)pyrrolidin-2-yl]methyl]-N-methyl-5-(7H-pyrrolo[2,3-d]pyrimidin-4-yl)-5,8-diazaspiro[2.5]octane-8-sulfonamide]
EC50 (JAK3): < 100 nM
EC50 (JAK2): < 100 nM
EC50 (JAK1): < 100 nM
EC50 (TYK2): < 100 nM

CN(C[C@@H]1CCC(=O)N1)S(=O)(=O)N1CCN(c2ncnc3[nH]ccc23)CC12CC2 [Example 183, N-methyl-N-[[(2S)-5-oxopyrrolidin-2-yl]methyl]-5-(7H-pyrrolo[2,3-d]pyrimidin-4-yl)-5,8-diazaspiro[2.5]octane-8-sulfonamide]
EC50 (JAK3): < 100 nM
EC50 (JAK2): < 100 nM
EC50 (JAK1): < 100 nM
EC50 (TYK2): < 100 nM

CN(C[C@H]1CCC(=O)N1)S(=O)(=O)N1CCN(c2ncnc3[nH]ccc23)CC12CC2 [Example 184, N-methyl-N-[[(2R)-5-oxopyrrolidin-2-yl]methyl]-5-(7H-pyrrolo[2,3-d]pyrimidin-4-yl)-5,8-diazaspiro[2.5]octane-8-sulfonamide]
EC50 (JAK3): < 100 nM
EC50 (JAK2): < 100 nM
EC50 (JAK1): < 100 nM
EC50 (TYK2): < 100 nM

CN(C[C@H]1CCCN1C(=O)CO)S(=O)(=O)N1CCN(c2ncnc3[nH]ccc23)CC12CC2 [Example 185, N-[[(2R)-1-(2-hydroxyacetyl)pyrrolidin-2-yl]methyl]-N-methyl-5-(7H-pyrrolo[2,3-d]pyrimidin-4-yl)-5,8-diazaspiro[2.5]octane-8-sulfonamide]
EC50 (JAK3): < 100 nM
EC50 (JAK2): < 100 nM
EC50 (JAK1): < 100 nM
EC50 (TYK2): < 100 nM

CN(C[C@H]1CCCN1C(=O)C(O)CO)S(=O)(=O)N1CCN(c2ncnc3[nH]ccc23)CC12CC2 (stereo partly drawn) [Example 186, N-[[(2R)-1-(2,3-dihydroxypropanoyl)pyrrolidin-2-yl]methyl]-N-methyl-5-(7H-pyrrolo[2,3-d]pyrimidin-4-yl)-5,8-diazaspiro[2.5]octane-8-sulfonamide]
EC50 (JAK3): < 100 nM
EC50 (JAK2): < 100 nM
EC50 (JAK1): < 100 nM
EC50 (TYK2): < 100 nM

CN(C[C@H]1CCCN1C(=O)CCC#N)S(=O)(=O)N1CCN(c2ncnc3[nH]ccc23)CC12CC2 [Example 187, N-[[(2R)-1-(3-cyanopropanoyl)pyrrolidin-2-yl]methyl]-N-methyl-5-(7H-pyrrolo[2,3-d]pyrimidin-4-yl)-5,8-diazaspiro[2.5]octane-8-sulfonamide]
EC50 (JAK3): 100 to 500 nM
EC50 (JAK2): < 100 nM
EC50 (JAK1): < 100 nM
EC50 (TYK2): 100 to 500 nM

CN(C[C@H]1CCCN1C=O)S(=O)(=O)N1CCN(c2ncnc3[nH]ccc23)CC12CC2 [Example 188, N-[[(2R)-1-formylpyrrolidin-2-yl]methyl]-N-methyl-5-(7H-pyrrolo[2,3-d]pyrimidin-4-yl)-5,8-diazaspiro[2.5]octane-8-sulfonamide]
EC50 (JAK3): < 100 nM
EC50 (JAK2): < 100 nM
EC50 (JAK1): < 100 nM
EC50 (TYK2): 100 to 500 nM

CN(C[C@H]1CCCN1C(=O)CC#N)S(=O)(=O)N1CCN(c2ncnc3[nH]ccc23)CC12CC2 [Example 189, N-[[(2R)-1-(2-cyanoacetyl)pyrrolidin-2-yl]methyl]-N-methyl-5-(7H-pyrrolo[2,3-d]pyrimidin-4-yl)-5,8-diazaspiro[2.5]octane-8-sulfonamide]
EC50 (JAK3): < 100 nM
EC50 (JAK2): < 100 nM
EC50 (JAK1): < 100 nM
EC50 (TYK2): 100 to 500 nM

CN(C[C@H]1CCCN1C(=O)CCO)S(=O)(=O)N1CCN(c2ncnc3[nH]ccc23)CC12CC2 [Example 190, N-[[(2R)-1-(3-hydroxypropanoyl)pyrrolidin-2-yl]methyl]-N-methyl-5-(7H-pyrrolo[2,3-d]pyrimidin-4-yl)-5,8-diazaspiro[2.5]octane-8-sulfonamide]
EC50 (JAK3): 100 to 500 nM
EC50 (JAK2): < 100 nM
EC50 (JAK1): < 100 nM
EC50 (TYK2): 100 to 500 nM

CN(C[C@@H]1CCCN1C=O)S(=O)(=O)N1CCN(c2ncnc3[nH]ccc23)CC12CC2 [Example 191, N-[[(2S)-1-formylpyrrolidin-2-yl]methyl]-N-methyl-5-(7H-pyrrolo[2,3-d]pyrimidin-4-yl)-5,8-diazaspiro[2.5]octane-8-sulfonamide]
EC50 (JAK3): < 100 nM
EC50 (JAK2): < 100 nM
EC50 (JAK1): < 100 nM
EC50 (TYK2): 100 to 500 nM

CN(C[C@@H]1CCCN1C(=O)CO)S(=O)(=O)N1CCN(c2ncnc3[nH]ccc23)CC12CC2 [Example 192, N-[[(2S)-1-(2-hydroxyacetyl)pyrrolidin-2-yl]methyl]-N-methyl-5-(7H-pyrrolo[2,3-d]pyrimidin-4-yl)-5,8-diazaspiro[2.5]octane-8-sulfonamide]
EC50 (JAK3): < 100 nM
EC50 (JAK2): < 100 nM
EC50 (JAK1): < 100 nM
EC50 (TYK2): < 100 nM

CN(C[C@@H]1CCCN1C(=O)CCO)S(=O)(=O)N1CCN(c2ncnc3[nH]ccc23)CC12CC2 [Example 193, N-[[(2S)-1-(3-hydroxypropanoyl)pyrrolidin-2-yl]methyl]-N-methyl-5-(7H-pyrrolo[2,3-d]pyrimidin-4-yl)-5,8-diazaspiro[2.5]octane-8-sulfonamide]
EC50 (JAK3): < 100 nM
EC50 (JAK2): < 100 nM
EC50 (JAK1): < 100 nM
EC50 (TYK2): 100 to 500 nM

CN(C[C@@H]1CCCN1S(C)(=O)=O)S(=O)(=O)N1CCN(c2ncnc3[nH]ccc23)CC12CC2 [Example 194, N-methyl-N-[[(2S)-1-methylsulfonylpyrrolidin-2-yl]methyl]-5-(7H-pyrrolo[2,3-d]pyrimidin-4-yl)-5,8-diazaspiro[2.5]octane-8-sulfonamide]
EC50 (JAK3): < 100 nM
EC50 (JAK2): < 100 nM
EC50 (JAK1): < 100 nM
EC50 (TYK2): 100 to 500 nM
